Read-outs that look alike come from different tables or passages of the source.
Key:
T790M resistance mutants = conditions: in vitro; cited from earlier work
[1] = test system: non-small-cell lung cancer patients with EGFR mutations; conditions: for TTP (months): first line treatment with erlotinib
From the text: The term “clinical response”, as used herein, refers to the response of the subject suffering from NSCLC to a therapy with a tyrosine kinase inhibitor. Standard criteria (Miller, et al. Cancer, 1981; 47:207-14) that can be used herewith to evaluate the response to chemotherapy include response, stabilization and progression. It can be a complete response (or complete remission) which is the disappearance of all detectable malignant disease or a partial response which is defined as approximately >50% decrease in the sum of products of the largest perpendicular diameters of one or more lesions (tumor lesions), no new lesions and no progression of any lesion. Patients achieving complete or partial response were considered “responders”, and all other patients were considered “non-responders”.
The presence of the T790M mutation was examined in 129 patients for whom pretreatment tumor tissue was available.

[2] = 81 patients, BRCA1 4.92-10.7 N = 27
[3] = 81 patients, BRCA1 >10.7 N = 27
[4] = 81 patients, BRCA1 ≦4.92 N = 27
[5] = 129 patients, patients with the T790M mutation
[6] = 129 patients, patients without the T790M mutation
[7] = patients with the T790M mutation, BRCA1 4.92-11.79
[8] = patients with the T790M mutation, BRCA1 >11.79
[9] = patients with the T790M mutation, BRCA1 ≦4.92
[10] = patients without the T790M mutation, BRCA1 4.92-11.79
[11] = patients without the T790M mutation, BRCA1 >11.79
[12] = patients without the T790M mutation, BRCA1 ≦4.92

SMILES: CC#CC(=O)Nc1ccc2ncnc(Nc3cccc(Br)c3)c2c1 [CL-387,785]
- inhibition of growth of the T790M resistance mutants (T790M resistance mutants): inhibit the growth of the T790M resistance mutants

SMILES: C#Cc1cccc(Nc2ncnc3cc(OCCOC)c(OCCOC)cc23)c1 [erlotinib, [6,7-bis(2-methoxyethoxy)-4-quinazolin-4-yl]-(3-ethynylphenyl)amine]
- median progression-free survival ([1]; 28 patients harboring the T790M mutation, high BRCA1 levels): 8 months
- median progression-free survival ([1]; 28 patients harboring the T790M mutation, intermediate BRCA1 levels): 4 months
- median progression-free survival ([1]; 28 patients harboring the T790M mutation, low BRCA1 levels): 19 months
- progression-free survival ([1]; 34 patients receiving erlotinib as first-line treatment (so in the source), high BRCA1 levels): 9 months
- progression-free survival ([1]; 34 patients receiving erlotinib as first-line treatment (so in the source), intermediate BRCA1 levels): 24 months
- progression-free survival ([1]; 34 patients receiving erlotinib as first-line treatment (so in the source), low BRCA1 levels): not reached
- progression-free survival ([1]; 47 patients receiving erlotinib as first-line treatment, high BRCA1 levels): 16 months
- progression-free survival ([1]; 47 patients receiving erlotinib as first-line treatment, intermediate BRCA1 levels): 9 months
- progression-free survival ([1]; 47 patients receiving erlotinib as first-line treatment, low BRCA1 levels): 27 months
- median progression-free survival ([1]; 53 patients without the T790M mutation, high BRCA1 levels): 12 months
- median progression-free survival ([1]; 53 patients without the T790M mutation, intermediate BRCA1 levels): not reached
- median progression-free survival ([1]; 53 patients without the T790M mutation, low BRCA1 levels): 27 months
- progression-free survival ([1]; 64 patients receiving erlotinib as second-line treatment, with the T790M mutation): 13 months
- progression-free survival ([1]; 64 patients receiving erlotinib as second-line treatment, without the T790M mutation): 18 months
- progression-free survival ([1]; 65 patients receiving erlotinib as first-line treatment, with the T790M mutation): 8 months
- progression-free survival ([1]; 65 patients receiving erlotinib as first-line treatment, without the T790M mutation): 18 months
- Complete or partial response, (%) [1, 2]: (72) %
- Complete response, (%) [1, 2]: (16) %
- Partial response, (%) [1, 2]: (56) %
- Progressive disease, (%) [1, 2]: (12) %
- Stable disease, (%) [1, 2]: (16) %
- Complete or partial response, (%) [1, 3]: (68.2) %
- Complete response, (%) [1, 3]: (9.1) %
- Partial response, (%) [1, 3]: (59.1) %
- Progressive disease, (%) [1, 3]: (9.1) %
- Stable disease, (%) [1, 3]: (22.7) %
- Complete or partial response, (%) [1, 4]: (76) %
- Complete response, (%) [1, 4]: (20) %
- Partial response, (%) [1, 4]: (56) %
- Progressive disease, (%) [1, 4]: (8) %
- Stable disease, (%) [1, 4]: (16) %
- Median progression-free survival to erlotinib ([1]; 81 patients, high BRCA1 levels): 10 months
- Median progression-free survival to erlotinib ([1]; 81 patients, intermediate BRCA1 levels): 18 months
- Overall survival ([1]; 81 patients, intermediate or high BRCA1 levels): not reached
- Median progression-free survival to erlotinib ([1]; 81 patients, low BRCA1 levels): 27 months
- Overall survival ([1]; 81 patients, low BRCA1 levels): 33 months
- Overall survival [1, 5]: 27 months
- median progression-free survival [1, 5]: 12 months
- Overall survival [1, 6]: 29 months
- median progression-free survival [1, 6]: 18 months
- Complete or partial response, (%) ([1]; All patients N = 129): (68.9) %
- Complete response, (%) ([1]; All patients N = 129): (10.3) %
- Partial response, (%) ([1]; All patients N = 129): (58.6) %
- Progressive disease, (%) ([1]; All patients N = 129): (12.9) %
- Stable disease, (%) ([1]; All patients N = 129): (18.1) %
- Complete or partial response, (%) ([1]; T790M-negative N = 84): (72.3) %
- Complete response, (%) ([1]; T790M-negative N = 84): (13.9) %
- Partial response, (%) ([1]; T790M-negative N = 84): (58.3) %
- Progressive disease, (%) ([1]; T790M-negative N = 84): (11.1) %
- Stable disease, (%) ([1]; T790M-negative N = 84): (16.7) %
- Complete or partial response, (%) ([1]; T790M-positive N = 45): (63.6) %
- Complete response, (%) ([1]; T790M-positive N = 45): (4.5) %
- Partial response, (%) ([1]; T790M-positive N = 45): (59.1) %
- Progressive disease, (%) ([1]; T790M-positive N = 45): (15.9) %
- Stable disease, (%) ([1]; T790M-positive N = 45): (20.5) %
- TTP (months) ([1]; T790M mutation No, BRCA1 levels High/Intermediate): 18 months
- TTP (months) ([1]; T790M mutation No, BRCA1 levels Low): 27 months
- TTP (months) ([1]; T790M mutation Yes, BRCA1 levels High/Intermediate): 3 months
- TTP (months) ([1]; T790M mutation Yes, BRCA1 levels Low): 27 months
- Complete or partial response, number of patients [1, 7]: 5
- Complete or partial response, share in parentheses [1, 7]: (55.6)
- Complete response, number of patients [1, 7]: 0
- Complete response, share in parentheses [1, 7]: (0)
- Partial response, number of patients [1, 7]: 5
- Partial response, share in parentheses [1, 7]: (55.6)
- Progressive disease, number of patients [1, 7]: 2
- Progressive disease, share in parentheses [1, 7]: (22.2)
- Stable disease, number of patients [1, 7]: 2
- Stable disease, share in parentheses [1, 7]: (22.2)
- Complete or partial response, number of patients [1, 8]: 7
- Complete or partial response, share in parentheses [1, 8]: (77.8)
- Complete response, number of patients [1, 8]: 1
- Complete response, share in parentheses [1, 8]: (11.1)
- Partial response, number of patients [1, 8]: 6
- Partial response, share in parentheses [1, 8]: (66.7)
- Progressive disease, number of patients [1, 8]: 1
- Progressive disease, share in parentheses [1, 8]: (11.1)
- Stable disease, number of patients [1, 8]: 1
- Stable disease, share in parentheses [1, 8]: (11.1)
- Complete or partial response, number of patients [1, 9]: 7
- Complete or partial response, share in parentheses [1, 9]: (70)
- Complete response, number of patients [1, 9]: 1
- Complete response, share in parentheses [1, 9]: (10)
- Partial response, number of patients [1, 9]: 6
- Partial response, share in parentheses [1, 9]: (60)
- Progressive disease, number of patients [1, 9]: 1
- Progressive disease, share in parentheses [1, 9]: (10)
- Stable disease, number of patients [1, 9]: 2
- Stable disease, share in parentheses [1, 9]: (20)
- Complete or partial response, number of patients [1, 10]: 13
- Complete or partial response, share in parentheses [1, 10]: (76.5)
- Complete response, number of patients [1, 10]: 4
- Complete response, share in parentheses [1, 10]: (23.5)
- Partial response, number of patients [1, 10]: 9
- Partial response, share in parentheses [1, 10]: (52.9)
- Progressive disease, number of patients [1, 10]: 1
- Progressive disease, share in parentheses [1, 10]: (5.9)
- Stable disease, share in parentheses [1, 10]: (17.6)
- Complete or partial response, number of patients [1, 11]: 7
- Complete or partial response, share in parentheses [1, 11]: (63.6)
- Complete response, number of patients [1, 11]: 1
- Complete response, share in parentheses [1, 11]: (9.1)
- Partial response, number of patients [1, 11]: 6
- Partial response, share in parentheses [1, 11]: (54.5)
- Progressive disease, number of patients [1, 11]: 1
- Progressive disease, share in parentheses [1, 11]: (9.1)
- Stable disease, share in parentheses [1, 11]: (27.3)
- Complete or partial response, number of patients [1, 12]: 13
- Complete or partial response, share in parentheses [1, 12]: (81.3)
- Complete response, number of patients [1, 12]: 4
- Complete response, share in parentheses [1, 12]: (25)
- Partial response, number of patients [1, 12]: 9
- Partial response, share in parentheses [1, 12]: (56.3)
- Progressive disease, number of patients [1, 12]: 1
- Progressive disease, share in parentheses [1, 12]: (6.3)
- Stable disease, number of patients [1, 12]: 2
- Stable disease, share in parentheses [1, 12]: (12.5)
- progression-free survival ([1]; subgroup of 48 patients with L858R, with the T790M mutation): 16 months
- progression-free survival ([1]; subgroup of 48 patients with L858R, without the T790M mutation): 15 months
- progression-free survival ([1]; subgroup of 81 patients with del 19, with the T790M mutation): 12 months
- progression-free survival ([1]; subgroup of 81 patients with del 19, without the T790M mutation): 20 months

— patent US20120316187A1, “MOLECULAR BIOMARKERS FOR PREDICTING RESPONSE TO TYROSINE KINASE INHIBITORS IN LUNG CANCER” (PANGAEA BIOTECH, S.L., priority 2009, published 2012)
